Measured values as given in publication PMC11274128, “Modification and Synergistic Studies of a Novel Frog Antimicrobial Peptide against Pseudomonas aeruginosa Biofilms” (Antibiotics, 2024).
Values after ≈ are worked out from the molar mass of the structure shown. Where two headings read alike, the source gives them in different places. Bridge positions count the residues as written; N and C are the ends. Peptide text beside a SMILES is read from it.

What was measured:
[1] = test system: S. aureus (ATCC 6538); experiment: microbe, parasite or virus in culture; assay type: cell-based, Staphylococcus aureus
Description: (§1) The minimum inhibitory concentration (MIC) is the minimum concentration of an antimicrobial agent that prevents the visible growth of a bacterium or bacteria. The MIC is an important piece of data for research on new antimicrobial agents and helps in the effective selection of antibiotics to improve the success of treatment. The minimum bactericidal concentration (MBC) is defined as the lowest antibiotic concentration that kills 99.9% of the inoculum. This study mainly contained eight different microorganisms, which were Staphylococcus aureus (ATCC 6538), methicillin-resistant Staphylococcus aureus (NCTC 12493), Enterococcus faecalis (NCTC 12697), Escherichia coli (ATCC 8739), Klebsiella pneumoniae (ATCC 43816), Pseudomonas aeruginosa (ATCC CRM 9027), Acinetobacter baumannii (BAA 747), and Candida albicans (ATCC 10231). The bacteria were incubated in the compatible medium at 37 °C overnight.

[2] = test system: MRSA (NCTC 12493); experiment: microbe, parasite or virus in culture; assay type: cell-based, methicillin-resistant Staphylococcus aureus
Description: as §1

[3] = test system: E. faecalis (NCTC 12697); experiment: microbe, parasite or virus in culture; assay type: cell-based, Enterococcus faecalis; conditions: Enterococcus faecalis, NCTC12697
Description: as §1

[4] = test system: E. coli (ATCC 8739); experiment: microbe, parasite or virus in culture; assay type: cell-based, Escherichia coli
Description: as §1

[5] = test system: K. pneumoniae (ATCC 43816); experiment: microbe, parasite or virus in culture; assay type: cell-based, Klebsiella pneumoniae
Description: as §1

[6] = test system: P. aeruginosa (ATCC CRM 9027); experiment: microbe, parasite or virus in culture; assay type: cell-based, Pseudomonas aeruginosa
Description: as §1

[7] = test system: A. baumannii (BAA 747); experiment: microbe, parasite or virus in culture; assay type: cell-based, Acinetobacter baumannii
Description: as §1

[8] = test system: C. albicans (ATCC 10231); assay type: cell-based, Candida albicans; conditions: yeast C. albicans ATCC 10231
Description: as §1

[9] = test system: G+ Bacteria; experiment: Geometric mean of MICs and TI value; assay type: cell-based; conditions: geometric mean of MICs against tested Gram-positive bacteria
Method: (§2) The therapeutic potential of antimicrobial agents was valued based on their selectivity toward bacteria in reference to erythrocytes. The TI value was calculated from the results of antibacterial and haemolysis experiments of peptides using the following formula:TI value = HC10 / GMMICs.
(§3) GM was the geometric mean of MICs against all tested bacteria.

[10] = test system: G− Bacteria; experiment: Geometric mean of MICs and TI value; assay type: cell-based; conditions: geometric mean of MICs against tested Gram-negative bacteria
Method: as §2, §3

[11] = test system: Yeast; experiment: Geometric mean of MICs and TI value; assay type: cell-based, Candida albicans; conditions: C. albicans ATCC 10231
Method: as §2, §3

[12] = test system: horse red blood cells; conditions: horse red blood cells in PBS, 37 °C, 2 h, absorbance 570 nm; positive control 0.1% Triton
Method: The pure peptide was dissolved in PBS and then two-fold diluted to obtain a series of concentrations: 512, 256, 128, 64, 32, 16, 8, 4, and 2 μM. A positive control (0.1% Triton) and blank control (PBS) were used. Two millilitres of fresh horse red blood cells were washed in PBS until the supernatant became colourless and clear, and the mixture was then thoroughly mixed. Each mixture contained 100 μL of peptide solution or controls and 100 μL of horse red blood cells, which were then incubated at 37 °C for 2 h and centrifuged at 930× g for 10 min. Subsequently, 100 μL of supernatant from each tube was transferred into a 96-well plate, and the plate reader measured the absorbance at a wavelength of 570 nm. The haemolysis rate was calculated using the following formula:Percentage Haemolysis= (ASample − ABlank)/(APositive − ABlank) × 100%

[13] = Staphylococcus aureus, ATCC6538
[14] = Klebsiella pneumoniae, ATCC43816
[15] = Acinetobacter baumannii, BAA747

C[C@H]1COc2c(N3CCN(C)CC3)c(F)cc3c(=O)c(C(=O)O)cn1c23 [Levofloxacin, reference compound]
MIC ([1]; Staphylococcus aureus, ATCC6538, planktonic S. aureus ATCC 6538, 37 °C, nine repeats of three independent experiments, read-out: MIC): 0.5 µM (≈ 0.181 µg/mL) | MBC ([1]; Staphylococcus aureus, ATCC6538, planktonic S. aureus ATCC 6538, lowest concentration killing 99.9% of inoculum, read-out: MBC): 0.5 µM (≈ 0.181 µg/mL) | MIC ([2]; Staphylococcus aureus, planktonic MRSA NCTC 12493, 37 °C, nine repeats of three independent experiments, read-out: MIC): 0.25 µM (≈ 0.0903 µg/mL) | MBC ([2]; Staphylococcus aureus, planktonic MRSA NCTC 12493, lowest concentration killing 99.9% of inoculum, read-out: MBC): 0.5 µM (≈ 0.181 µg/mL) | MIC ([3]; planktonic E. faecalis NCTC 12697, 37 °C, nine repeats of three independent experiments, read-out: MIC): 2 µM (≈ 0.723 µg/mL) | MBC ([3]; planktonic E. faecalis NCTC 12697, lowest concentration killing 99.9% of inoculum, read-out: MBC): 8 µM (≈ 2.89 µg/mL) | MIC ([4]; Escherichia coli, ATCC8739, planktonic E. coli ATCC 8739, 37 °C, nine repeats of three independent experiments, read-out: MIC): 0.25 µM (≈ 0.0903 µg/mL) | MBC ([4]; Escherichia coli, ATCC8739, planktonic E. coli ATCC 8739, lowest concentration killing 99.9% of inoculum, read-out: MBC): 0.5 µM (≈ 0.181 µg/mL) | MIC ([5]; Klebsiella pneumoniae, ATCC43816, planktonic K. pneumoniae ATCC 43816, 37 °C, nine repeats of three independent experiments, read-out: MIC): > 128 µM | MBC ([5]; Klebsiella pneumoniae, ATCC43816, planktonic K. pneumoniae ATCC 43816, lowest concentration killing 99.9% of inoculum, read-out: MBC): > 128 µM | MIC ([6]; Pseudomonas aeruginosa, planktonic P. aeruginosa ATCC CRM 9027, 37 °C, nine repeats of three independent experiments, read-out: MIC): 2 µM (≈ 0.723 µg/mL) | MBC ([6]; Pseudomonas aeruginosa, planktonic P. aeruginosa ATCC CRM 9027, lowest concentration killing 99.9% of inoculum, read-out: MBC): 2 µM (≈ 0.723 µg/mL) | MIC ([7]; Acinetobacter baumannii, BAA747, planktonic A. baumannii BAA 747, 37 °C, nine repeats of three independent experiments, read-out: MIC): 1 µM (≈ 0.361 µg/mL) | MBC ([7]; Acinetobacter baumannii, BAA747, planktonic A. baumannii BAA 747, lowest concentration killing 99.9% of inoculum, read-out: MBC): 1 µM (≈ 0.361 µg/mL)

CC[C@H](C)[C@H](NC(=O)[C@H](CCCCN)NC(=O)[C@H](CCCCN)NC(=O)CNC(=O)[C@H](C)NC(=O)[C@H](C)NC(=O)[C@H](CC(C)C)NC(=O)[C@@H](NC(=O)[C@H](C)NC(=O)[C@H](CCCNC(=N)N)NC(=O)[C@H](CC(C)C)NC(=O)[C@H](CC(C)C)NC(=O)CN)C(C)C)C(=O)N[C@H](C(=O)N[C@H]1CSSC[C@@H](C(=O)O)NC(=O)[C@H](CCCNC(=N)N)NC(=O)CNC(=O)[C@H](CO)NC(=O)[C@H](CC(C)C)NC(=O)CNC1=O)C(C)C [Peptide 2085-R] (H-GLLRAVLAAGKKIVCGLSGRC-OH; disulfide 15-21)
MIC ([1]; planktonic S. aureus ATCC 6538, 37 °C, nine repeats of three independent experiments): 16 µM (≈ 33.3 µg/mL) | MBC ([1]; planktonic S. aureus ATCC 6538, lowest concentration killing 99.9% of inoculum): 16 µM (≈ 33.3 µg/mL) | MIC ([2]; planktonic MRSA NCTC 12493, 37 °C, nine repeats of three independent experiments, read-out: MIC): 16 µM (≈ 33.3 µg/mL) | MBC ([2]; planktonic MRSA NCTC 12493, lowest concentration killing 99.9% of inoculum, read-out: MBC): 32 µM (≈ 66.7 µg/mL) | MIC ([4]; planktonic E. coli ATCC 8739, 37 °C, nine repeats of three independent experiments): 16 µM (≈ 33.3 µg/mL) | MBC ([4]; planktonic E. coli ATCC 8739, lowest concentration killing 99.9% of inoculum): 16 µM (≈ 33.3 µg/mL) | MIC ([5]; planktonic K. pneumoniae ATCC 43816, 37 °C, nine repeats of three independent experiments, read-out: MIC): 32 µM (≈ 66.7 µg/mL) | MBC ([5]; planktonic K. pneumoniae ATCC 43816, lowest concentration killing 99.9% of inoculum, read-out: MBC): 64 µM (≈ 133 µg/mL) | MIC ([6]; planktonic P. aeruginosa ATCC CRM 9027, 37 °C, nine repeats of three independent experiments): 64 µM (≈ 133 µg/mL) | MBC ([6]; planktonic P. aeruginosa ATCC CRM 9027, lowest concentration killing 99.9% of inoculum): 64 µM (≈ 133 µg/mL) | MIC ([7]; planktonic A. baumannii BAA 747, 37 °C, nine repeats of three independent experiments, read-out: MIC): 32 µM (≈ 66.7 µg/mL) | MBC ([7]; planktonic A. baumannii BAA 747, lowest concentration killing 99.9% of inoculum, read-out: MBC): 64 µM (≈ 133 µg/mL) | MIC ([8]; 37 °C, nine repeats of three independent experiments): 32 µM (≈ 66.7 µg/mL) | MBC ([8]; lowest concentration killing 99.9% of inoculum): 32 µM (≈ 66.7 µg/mL) | GM (geometric mean of MICs), G+ Bacteria [9]: 25.40 µM | GM (geometric mean of MICs), G− Bacteria [10]: 32.00 µM | GM (geometric mean of MICs), Yeast [11]: 32.00 µM | HC10 [12]: >256 µM

CN[C@H](CC(C)C)C(=O)N[C@H]1C(=O)N[C@@H](CC(N)=O)C(=O)N[C@H]2C(=O)N[C@H]3C(=O)N[C@H](C(=O)N[C@H](C(=O)O)c4cc(O)cc(O)c4-c4cc3ccc4O)[C@H](O)c3ccc(c(Cl)c3)Oc3cc2cc(c3O[C@@H]2O[C@H](CO)[C@@H](O)[C@H](O)[C@H]2O[C@H]2C[C@](C)(N)[C@H](O)[C@H](C)O2)Oc2ccc(cc2Cl)[C@H]1O [Vancomycin, reference compound]
MBC [1, 13]: 64 µM (≈ 92.8 µg/mL) | MIC [1, 13]: 8 µM (≈ 11.6 µg/mL) | MBC ([2]; Staphylococcus aureus): 8 µM (≈ 11.6 µg/mL) | MIC ([2]; Staphylococcus aureus): 4 µM (≈ 5.8 µg/mL) | MBC [3]: > 128 µM | MIC [3]: 32 µM (≈ 46.4 µg/mL) | MBC ([4]; Escherichia coli, ATCC8739): > 128 µM | MIC ([4]; Escherichia coli, ATCC8739): 32 µM (≈ 46.4 µg/mL) | MBC [5, 14]: > 128 µM | MIC [5, 14]: > 128 µM | MBC ([6]; Pseudomonas aeruginosa): > 128 µM | MIC ([6]; Pseudomonas aeruginosa): > 128 µM | MBC [7, 15]: > 128 µM | MIC [7, 15]: > 128 µM
